# Data taken from patent publication US9101136B2, “Synergistic herbicide/fungicide composition containing certain pyridine carboxylic acids and certain fungicides” (Dow AgroSciences LLC, priority 2010, dated 2015).
# Where a name gives a salt, the structure may show the parent alone.
# How the values were obtained:
# Format in all cases: in vivo
# [1] = system: Russian thistle (Salsola iberica L; SASKR); assay: Postemergence herbicidal activity of mixtures on Russian thistle; details: for SASKR Ob (observed control): alone
# Protocol: (§1) Seeds of the desired test plant species were planted in Sun Gro MetroMix 306 planting mixture, which typically has a pH of 6.0 to 6.8 and an organic matter content of about 30 percent, in plastic pots with a surface area of 103.2 square centimeters (cm^2). When required to ensure good germination and healthy plants, a fungicide treatment and/or other chemical or physical treatment was applied. The plants were grown for 7-36 days (d) in a greenhouse with an approximate 14-hour (h) photoperiod which was maintained at about 18° C. during the day and 17° C. during the night. Nutrients and water were added on a regular basis and supplemental lighting was provided with overhead metal halide 1000-Watt lamps as necessary. The plants were employed for testing when they reached the second or third true leaf stage.
# (§2) Treatments consisted of a cereal fungicide compound (as listed in Tables 1 through 34) and the cereal herbicide, 4-amino-3-chloro-6-(4-chloro-2-fluoro-3-methoxyphenyl)pyridine-2-carboxylic acid, alone and in combination. Weighed amounts of acid, esters (methyl) or salts (triethylammonium, TEA) of 4-amino-3-chloro-6-(4-chloro-2-fluoro-3-methoxyphenyl)pyridine-2-carboxylic acid (Compound I) were placed in 25 milliliter (mL) glass vials and dissolved in a volume of 97:3 volume-to-volume (v/v) acetone/dimethyl sulfoxide (DMSO) to obtain 4.5 milligrams active ingredient per milliliter (mg ai/mL) concentrated solutions. […] The concentrated solutions of Compound I were diluted to 1.5 mg ai/mL with the addition of 2 volumes of an aqueous mixture containing acetone, water, isopropyl alcohol, DMSO, Agri-dex crop oil concentrate, and Triton® X-77 surfactant in a 64.7:26.0:6.7:2.0:0.7:0.01 v/v ratio. A dilution solution was prepared by mixing 1 volume of 97:3 v/v acetone/DMSO and 2 volumes of an aqueous mixture containing acetone, water, isopropyl alcohol, DMSO, Agri-dex crop oil concentrate, and Triton® X-77 surfactant in a 64.7:26.0:6.7:2.0:0.7:0.01 v/v ratio. Compound requirements are based upon a 12 mL application volume at a rate of 187 liters per hectare (L/ha). The concentrated solutions of the cereal fungicides were prepared following the same procedure. Weighed amounts of fungicide were placed in 25 mL glass vials and dissolved in a volume of 97:3 v/v acetone/DMSO to obtain concentrated fungicide solutions. The concentrated solutions of the safener were prepared following the same procedure. Weighed amounts of safener were placed in 25 mL glass vials and dissolved in a volume of 97:3 v/v acetone/DMSO to obtain concentrated safener solutions.
# (§3) Spray solutions of the cereal herbicide and the fungicidal compound mixtures were prepared by adding the concentrated solutions to the appropriate amount of dilution solution to form 12 mL spray solution with active ingredients in combinations. Spray solutions of the cereal herbicide, herbicide safener and the fungicidal compound mixtures were prepared by adding the concentrated solutions to the appropriate amount of dilution solution to form 12 mL spray solution with active ingredients in combinations.
# (§4) Formulated compounds were applied to the plant material with an overhead Mandel track sprayer equipped with 8002E nozzles calibrated to deliver 187 L/ha over an application area of 0.503 square meters (m^2) at a spray height of 18 inches […] above average plant canopy. Control plants were sprayed in the same manner with the solvent blank.
# (§5) The treated plants and control plants were placed in a greenhouse as described above and watered by sub-irrigation to prevent wash-off of the test compounds. After 20-22 d, the condition of the test plants as compared with that of the control plants was determined visually and scored on a scale of 0 to 100 percent where 0 corresponds to no injury and 100 corresponds to complete kill. […]
# [2] = system: wild pansy (Viola tricolor L; VIOTR); assay: Postemergence herbicidal activity of mixtures on wild pansy
# Protocol: as §1, §2, §3, §4, §5
# Wheat = assay: Safening activity of herbicidal compositions on wheat (crop injury)
# Protocol: as §1, §2, §3, §4, §5
# [3] = system: scented mayweed (Matricaria chamomila L; MATCH); assay: Postemergence herbicidal activity of mixtures on scented mayweed; details: for MATCH Ob (observed control): alone
# Protocol: as §1, §2, §3, §4, §5
# [4] = system: bird's-eye speedwell (Veronica persica L; VERPE); assay: Postemergence herbicidal activity of mixtures on bird's-eye speedwell; details: for VERPE Ob (observed control): alone
# Protocol: as §1, §2, §3, §4, §5
# [5] = system: kochia (Kochia scoparia L; KCHSC); assay: Postemergence herbicidal activity of mixtures on kochia; design: KCHSC Ob: unit: %; details: for KCHSC Ob (observed control): alone
# Protocol: as §1, §2, §3, §4, §5
# Barley = assay: Safening activity of herbicidal compositions on barley (crop injury)
# Protocol: as §1, §2, §3, §4, §5
smiles,measurement,setting,value
"CO/C=C(/C(=O)OC)c1ccccc1Oc1cc(Oc2ccccc2C#N)ncn1 [Azoxystrobin, methyl (αE)-2-[[6-(2-cyanophenoxy)-4-pyrimidinyl]oxy]-α-(methoxymethylene)benzeneacetate]",pest or weed control at 62.5 g/ha,"[1]; Salsola tragus, post-emergence, fungicide 62.5 g/ha alone, read-out: SASKR Ob",0%
same,SASKR Ob,[1]; fungicide 250 g/ha,0
same,pest or weed control at 62.5 g/ha,"[2]; Viola tricolor, post-emergence, fungicide 62.5 g/ha alone, read-out: VIOTR Ob",0%
same,TRZAS Ob,Wheat; fungicide 250 g/ha,0
same,pest or weed control at 62.5 g/ha,"[3]; Matricaria, post-emergence, fungicide 62.5 g/ha alone, read-out: MATCH Ob",0%
same,MATCH Ob,[3]; fungicide 250 g/ha,0
same,VERPE Ob,[4]; fungicide 250 g/ha,0
same,pest or weed control at 62.5 g/ha,"[5]; Bassia scoparia, post-emergence, fungicide 62.5 g/ha alone, read-out: KCHSC Ob",0%
same,KCHSC Ob,[5]; fungicide 250 g/ha,0
same,HORVS Ob,Barley; fungicide 250 g/ha,0
O=C(O)COc1ccc(Cl)c2cccnc12 [Cloquintocet],SASKR Ob,[1]; Cloquintocet 4.4 g/ha,0
same,SASKR Ob,[1]; Cloquintocet 8.75 g/ha,0
same,VIOTR Ob,[2]; Cloquintocet 4.4 g/ha,0
same,VIOTR Ob,[2]; Cloquintocet 8.75 g/ha,0
same,TRZAS Ob,Wheat; Cloquintocet 4.4 g/ha,0
same,TRZAS Ob,Wheat; Cloquintocet 8.75 g/ha,0
same,MATCH Ob,[3]; Cloquintocet 4.4 g/ha,0
same,MATCH Ob,[3]; Cloquintocet 8.75 g/ha,0
same,VERPE Ob,[4]; Cloquintocet 4.4 g/ha,0
same,VERPE Ob,[4]; Cloquintocet 8.75 g/ha,0
same,KCHSC Ob,[5]; Cloquintocet 4.4 g/ha,0
same,KCHSC Ob,[5]; Cloquintocet 8.75 g/ha,0
same,HORVS Ob,Barley; Cloquintocet 4.4 g/ha,0
same,HORVS Ob,Barley; Cloquintocet 8.75 g/ha,0
COc1c(Cl)ccc(-c2nc(C(=O)O)c(Cl)c(N)c2F)c1F [Compound I Acid],SASKR Ob,[1]; Compound I Acid 35 g/ha,89
same,VIOTR Ob,[2]; Compound I Acid 35 g/ha,60
same,TRZAS Ob,Wheat; Compound I Acid 35 g/ha,22
same,MATCH Ob,[3]; Compound I Acid 35 g/ha,87
same,VERPE Ob,[4]; Compound I Acid 35 g/ha,72
same,KCHSC Ob,[5]; Compound I Acid 35 g/ha,98
same,HORVS Ob,Barley; Compound I Acid 35 g/ha,15
"COc1c(Cl)ccc(-c2cc(N)c(Cl)c(C(=O)O)n2)c1F [Compound I TEA Salt, 4-amino-3-chloro-6-(4-chloro-2-fluoro-3-methoxyphenyl)pyridine-2-carboxylic acid]",pest or weed control at 8.75 g/ha,"[1]; Salsola tragus, post-emergence, Compound I 8.75 g/ha alone, read-out: SASKR Ob",80%
same,pest or weed control at 17.5 g/ha,"[1]; Salsola tragus, post-emergence, Compound I 17.5 g/ha alone, read-out: SASKR Ob",84%
same,pest or weed control at 35 g/ha,"[1]; Salsola tragus, post-emergence, Compound I 35 g/ha alone, read-out: SASKR Ob",86%
same,SASKR Ob (observed control),[1]; 8.75 g/ha,80%
same,SASKR Ob (observed control),[1]; 17.5 g/ha,84%
same,SASKR Ob (observed control),[1]; 35 g/ha,86%
same,VIOTR Ob,[2]; Compound I 8.75 g/ha alone,23%
same,VIOTR Ob,[2]; Compound I 17.5 g/ha alone,40%
same,VIOTR Ob,[2]; Compound I 35 g/ha alone,47%
same,pest or weed control at 17.5 g/ha,"[2]; Viola tricolor, post-emergence, alone, 17.5 g/ha, read-out: VIOTR Ob (observed control)",40%
same,pest or weed control at 35 g/ha,"[2]; Viola tricolor, post-emergence, alone, 35 g/ha, read-out: VIOTR Ob (observed control)",47%
same,VIOTR Ob (observed control),"[2]; alone, 8.75 g/ha",23%
same,MATCH Ob,[3]; Compound I 8.75 g/ha alone,40%
same,pest or weed control at 17.5 g/ha,"[3]; Matricaria, post-emergence, Compound I 17.5 g/ha alone, read-out: MATCH Ob",67%
same,pest or weed control at 35 g/ha,"[3]; Matricaria, post-emergence, Compound I 35 g/ha alone, read-out: MATCH Ob",73%
same,MATCH Ob (observed control),[3]; 8.75 g/ha,40%
same,MATCH Ob (observed control),[3]; 17.5 g/ha,67%
same,MATCH Ob (observed control),[3]; 35 g/ha,73%
same,VERPE Ob,[4]; Compound I 8.75 g/ha alone,10%
same,VERPE Ob,[4]; Compound I 17.5 g/ha alone,40%
same,VERPE Ob,[4]; Compound I 35 g/ha alone,70%
same,VERPE Ob (observed control),[4]; 8.75 g/ha,10%
same,VERPE Ob (observed control),[4]; 17.5 g/ha,40%
same,VERPE Ob (observed control),[4]; 35 g/ha,70%
same,KCHSC Ob,[5]; Compound I 8.75 g/ha alone,40%
same,KCHSC Ob,[5]; Compound I 17.5 g/ha alone,55%
same,KCHSC Ob,[5]; Compound I 35 g/ha alone,65%
same,KCHSC Ob (observed control),[5]; 8.75 g/ha,40%
same,KCHSC Ob (observed control),[5]; 17.5 g/ha,55%
same,KCHSC Ob (observed control),[5]; 35 g/ha,65%
"CC(C1CC1)C(O)(Cn1cncn1)c1ccc(Cl)cc1 (stereo not drawn) [Cyproconazole, α-(4-chlorophenyl)-α-(1-cyclopropylethyl)-1H-1,2,4-triazole-1-ethanol]",pest or weed control at 19.8 g/ha,"[1]; Salsola tragus, post-emergence, fungicide 19.8 g/ha alone, read-out: SASKR Ob",0%
same,pest or weed control at 19.8 g/ha,"[2]; Viola tricolor, post-emergence, fungicide 19.8 g/ha alone, read-out: VIOTR Ob",0%
same,pest or weed control at 19.8 g/ha,"[3]; Matricaria, post-emergence, fungicide 19.8 g/ha alone, read-out: MATCH Ob",0%
same,pest or weed control at 19.8 g/ha,"[4]; Veronica persica, post-emergence, fungicide 19.8 g/ha alone, read-out: VERPE Ob",0%
same,pest or weed control at 19.8 g/ha,"[5]; Bassia scoparia, post-emergence, fungicide 19.8 g/ha alone, read-out: KCHSC Ob",0%
